# Measured values published in patent US20110130425A1, “Use of H3 Histaminergic Agonists for the Treatment of Addiction to Drugs of Abuse” (priority 2009, published 2011).
# Assays:
# [1] = test system: alcohol-seeking responses (craving); experiment: Cue-induced reinstatement of ethanol-seeking behavior; type: in vivo, rat; conditions: L-histidine acute injection; rats
# Procedure: The goal of this study is to evaluate the effects of a H3 histaminergic ligand, such as L-histidine, in a gold-standard model in the alcohol field. Namely, cue-induced reinstatement of alcohol-seeking behavior in order to measure alcohol-seeking responses (craving).
# Priming and cue-induced reinstatement of ethanol-seeking behavior: Rats are trained to self-administer 10% (v/v) ethanol in a single 30 minute daily session on a Fixed Ratio 1 (FR 1) schedule. During the first three days of training, responses at the left lever are reinforced by delivery of 0.2% (w/v) saccharin solution. Following acquisition of saccharin-reinforced responding, rats are trained to self-administer ethanol. Thus, rats have access to 0.2% saccharin with 5% ethanol for one day, 5% ethanol for 1 day, 0.2% saccharin with 8% ethanol for 1 day, 8% ethanol for 1 day, 0.2% saccharin with 10% ethanol for 1 day, and 10% ethanol for 1 day. During all the training phase, responses at the right lever result in the delivery of a drop of water.
# During the conditioning phase, animals are trained to discriminate the availability of ethanol (reward) vs. water (non-reward). This phase starts after completion of the saccharin-fading procedure. […] The 5 second period serves as “time-out” during which responses are recorded but not reinforced. […]
# [2] = test system: nicotine seeking behavior; experiment: Extinction and reinstatement of nicotine seeking, mouse intravenous operant self-administration; type: in vivo, C57B16/J mice; conditions: L-histidine 1 g/kg or 2 g/kg; mice
# Procedure: L-Histidine solution: L-Histidine (Sigma, H-8000) at a 155.15 g/mol concentration in 0.34 M phosphoric acid is prepared as follows. 1.5 g L-histidine are dissolved in 12 ml of 0.34 M phosphoric acid to obtain a 0.8 M solution of L-histidine at approximately pH 6. pH is verified and 0.1 g of NaCl added to a final concentration of 0.9%. Finally, the L-histidine solution is sterilized by filtration.
# Animals: Male C57B16/J mice (Charles River, France) are housed individually in controlled laboratory conditions with the temperature maintained at 21±1° C., humidity at 55±10%, and light reversal cycle (light on at 20.00 h, light off at 08.00 h). Mice are tested during the dark phase of a light reversal cycle. Behavioural tests and animal care are conducted in accordance with the standard ethical guidelines (National Institutes of Health 1995; European Communities Directive 86/609 EEC) and the protocols are approved by the local ethical committee (CEEA-PRBB).
# Apparatus: The self-administration experiments are conducted in mouse operant chambers (Model ENV-307A-CT, Medical Associates, Georgia, VT, USA). The experimental chambers are equipped with a house light, ventilator fan, drug infusion pump, liquid swivel with counterbalanced arm, and two manipulanda with cue lights that are located on either side of a food dipper. The manipulanda are holes (1.2 cm diameter). […]
# The catheter is flushed daily with a saline solution containing heparin (30 UI/mL) in order to maintain its patency. The patency of intravenous catheters is evaluated periodically (approximately every 6 days) and whenever drug self-administration behavior appears to deviate dramatically from that observed previously. Patency is evaluated by the infusion of 0.1 ml of thiobarbital (5 mg/ml) through the catheter. […]
# L-Histidine dosage: The first L-histidine dose is 1 g/kg. […] Dosage for other H3 histaminergic agonists or H3 histaminergic agonist precursors is determined considering the pharmacokinetic and toxicological characteristics of the compound. […]
compound,measurement,setting,value
N[C@@H](Cc1c[nH]cn1)C(=O)O [L-histidine],alcohol seeking (craving) induced by cues,[1],decreases alcohol seeking
same,cue-induced reinstatement of nicotine seeking,[2],decreases cue-induced reinstatement
same,number of sessions required to achieve the extinction criteria (nicotine),[2],shortens the number of sessions
same,responding during the first extinction session (nicotine),[2],decreases or delays responding
